Measurements from patent US20150315211A1, “SMALL MOLECULES FOR THE MODULATION OF MCL-1 AND METHODS OF MODULATING CELL DEATH, CELL DIVISION, CELL DIFFERENTIATION AND METHODS OF TREATING DISORDERS” (priority 2010, published 2015).
Where two headings read alike, the source gives them in different places.

Legend:
MCL-1ΔNΔC [1] = target: MCL-1ΔNΔC (Homo sapiens, UniProt Q07820); test: High-throughput competitive FP binding screen, FITC-MCL-1 SAHB/MCL-1ΔNΔC interaction; set-up: the C-terminal alpha-helix was deleted from each of these constructs; GST (N, cleaved yes); made in house
Chain of MCL-1ΔNΔC (Homo sapiens, UniProt Q07820) (Q07820 172-320 limits assumed, stated change not applied): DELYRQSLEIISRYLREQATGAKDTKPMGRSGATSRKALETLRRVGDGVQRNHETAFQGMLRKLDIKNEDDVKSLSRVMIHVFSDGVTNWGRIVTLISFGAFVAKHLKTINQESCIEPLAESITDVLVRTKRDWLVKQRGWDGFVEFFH

BCL-XLΔC = BCL-XLΔC (Homo sapiens, UniProt Q07817); test: High-throughput competitive FP binding screen, FITC-BAD BH3/BCL-XLΔC interaction
Chain of BCL-XLΔC (Q07817 1-212 limits assumed, stated change not applied): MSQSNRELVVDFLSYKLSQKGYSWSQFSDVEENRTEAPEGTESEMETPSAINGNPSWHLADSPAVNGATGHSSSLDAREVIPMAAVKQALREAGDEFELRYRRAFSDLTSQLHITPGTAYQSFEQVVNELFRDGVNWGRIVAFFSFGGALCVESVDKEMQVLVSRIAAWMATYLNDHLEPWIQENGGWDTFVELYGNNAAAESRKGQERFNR

MCL-1ΔNΔC [2] = test: High-throughput competitive FP binding screen, FITC-MCL-1 SAHB/MCL-1ΔNΔC interaction
[3] = FITC-MCL-1 SAHB/MCL-1ΔNΔC interaction pair, competitive FP screen
[4] = FITC-BAD BH3/BCL-XLΔC interaction pair, competitive FP screen
[5] = selectivity for MCL-1ΔNΔC over BCL-XLΔC targeting (BCL-XL % Bound minus MCL-1 % Bound)

SMILES | MCL-1% Bound (MCL-1ΔNΔC [1]; [3]) [%] | BCL-XL % Bound (BCL-XLΔC; [4]) [%] | Spec Values (MCL-1ΔNΔC [2]; [5]) | MCL-1% Bound (MCL-1ΔNΔC [1]) [%] | BCL-XL % Bound (BCL-XLΔC) [%] | Spec Values (MCL-1ΔNΔC [2])
Oc1c(Cl)cc(Cl)cc1Sc1cc(Cl)cc(Cl)c1Cl | 27.2 | 100.4 | 73.22 | – | – | –
Cc1cc2c(C(C)C)c(O)c(O)c(C=O)c2c(O)c1-c1c(C)cc2c(C(C)C)c(O)c(O)c(C=O)c2c1O.[Na+].[Na+] | – | – | – | 3.955 | 101 | 97.07
O=C(/C=C/c1ccco1)Nc1ccc(Br)cc1 | 47.95 | 96.9 | 48.95 | – | – | –
Cc1cc(NC(=O)/C=C/c2ccco2)n(-c2nc3ccccc3n2Cc2cccc(Oc3ccccc3)c2)n1 | 56.33 | 104.4 | 48.1 | – | – | –
Cc1ccc(/C=C/C(=O)N2CCN(C(c3ccccc3)c3ccccc3)CC2)o1 | 55.15 | 103.2 | 48.08 | – | – | –
O=C(/C=C/c1ccco1)Nc1ccc2ccccc2c1 | 64.64 | 112.7 | 48.07 | – | – | –
Cc1ccc(/C=C2\C(=O)N(c3ccccc3)c3ccccc32)o1 | 62.72 | 110.1 | 47.36 | – | – | –
COc1ccc(-c2nc3scc(CCNC(=O)/C=C/c4ccco4)n3n2)cc1 | 40.51 | 86.75 | 46.24 | – | – | –
O=C(/C=C/c1ccco1)Nc1cccc(-c2nc3ccccc3o2)c1 | 66.09 | 112 | 45.91 | – | – | –
O=C(/C=C/c1ccco1)NCc1ccccc1 | 56.1 | 101.8 | 45.66 | – | – | –
CN(Cc1ccc(-c2ccc(Br)cc2)o1)C(=O)c1ccc(S(N)(=O)=O)cc1 | 69.53 | 115.2 | 45.66 | – | – | –
Cc1ccc(CN(C)C(=O)c2ccccc2OCCOc2ccccc2)o1 | 68.8 | 114.2 | 45.38 | – | – | –
CC1CCN(C2=NN3C(=N)C(Cc4ccc(SCc5ccco5)o4)C(=O)N=C3S2)CC1 (stereo not shown) | 14.3 | 84.68 | 70.38 | – | – | –
Cc1ccccc1OCC1=NN2C(=N)/C(=C\c3cccn3-c3cccc(Cl)c3)C(=O)N=C2S1 | 25.28 | 92.89 | 67.61 | – | – | –
Cc1ccccc1OCC1=NN2C(=N)/C(=C\c3ccc(SCc4ccco4)o3)C(=O)N=C2S1 | 19.18 | 73.83 | 54.65 | – | – | –
CS(=O)(=O)C1=NN2C(=N)/C(=C\c3ccc(-c4ccc(Cl)cc4)o3)C(=O)N=C2S1 | 33.28 | 82.61 | 49.33 | – | – | –
CCCCSC1=C(C#N)C(=O)NC(c2ccc(OC)cc2)S1 (stereo not shown) | 24.59 | 99.33 | 74.73 | – | – | –
CCCCSC1=C(C#N)C(=O)NC(c2ccco2)S1 (stereo not shown) | 18.96 | 92.91 | 73.94 | – | – | –
CCSC1=C(C#N)C(=O)NC(c2ccc(O)cc2)S1 (stereo not shown) | 15.17 | 84.82 | 69.65 | – | – | –
CCSC1=C(C#N)C(=O)NC(c2ccc(N(C)C)cc2)S1 (stereo not shown) | 30.49 | 79.68 | 49.2 | – | – | –

SMILES | MCL-1% Bound (MCL-1ΔNΔC [1]; [3]) [%] | BCL-XL % Bound (BCL-XLΔC; [4]) [%] | Spec Values (MCL-1ΔNΔC [2]; [5]) | MCL-1% Bound (MCL-1ΔNΔC [1]) [%] | BCL-XL % Bound (BCL-XLΔC) [%] | Spec Values (MCL-1ΔNΔC [2])
CCCOC(=O)c1cc(-c2ccc(/C=C3\C(=O)NC(=O)C(C#N)=C3C)o2)ccc1Cl | −10.6 | 87.16 | 97.76 | – | – | –
CC1=C(C#N)C(=O)N(CCc2ccccc2)C(=O)/C1=C/c1ccc(-c2ccc(S(N)(=O)=O)cc2)o1 | 7.037 | 97.35 | 90.31 | – | – | –
CC1=C(C#N)C(=O)N(C)C(=O)/C1=C/c1ccc(-c2cccc(Cl)c2C)o1 | 3.369 | 86.24 | 82.88 | – | – | –
CCCOC(=O)c1cc(-c2ccc(/C=C3\C(=O)N(CCCO)C(=O)C(C#N)=C3C)o2)ccc1Cl | −7.072 | 75.5 | 82.57 | – | – | –
CCCN1C(=O)C(C#N)=C(C)/C(=C\c2ccc(-c3ccc(Br)cc3)o2)C1=O | 20.59 | 102.2 | 81.6 | – | – | –
CC1=C(C#N)C(=O)N(CC(C)O)C(=O)/C1=C/c1ccc(-c2ccc(C(=O)OC(C)C)cc2)o1 (stereo not shown) | 30.2 | 107.7 | 77.49 | – | – | –
CC1=C(C#N)C(=O)N(CC(C)O)C(=O)/C1=C/c1ccc(-c2ccc(Cl)cc2)o1 (stereo not shown) | 15.04 | 89.37 | 74.32 | – | – | –
C=CCN1C(=O)C(C#N)=C(C)/C(=C\c2ccc(-c3cccc(C(=O)O)c3)o2)C1=O | 31.43 | 89.24 | 57.81 | – | – | –
CC1=C(C#N)C(=O)N(CCc2ccccc2)C(=O)/C1=C/c1ccc(-c2ccc3c(c2)COC3=O)o1 | 30.81 | 84.79 | 53.97 | – | – | –
CC1=C(C#N)C(O)=NC(=O)/C1=C/c1ccc(-c2cccc(C(=O)O)c2)o1 | 36.81 | 89.7 | 52.9 | – | – | –
COC(=O)c1ccc(-c2ccc(/C=C3/C(=O)N(C)C(=O)C(C#N)=C3C)o2)cc1 | 38.82 | 91.59 | 52.77 | – | – | –
CC1=C(C#N)C(=O)N(CCc2ccccc2)C(=O)/C1=C\c1ccc(-c2cccc(Cl)c2)o1 | 29.33 | 78.77 | 49.43 | – | – | –
O=c1oc2cc(Cl)c(O)c(Cl)c2s1 | −5.219 | 104.7 | 109.9 | – | – | –
O=c1oc2c(-c3cccc(Cl)c3)cc(O)cc2s1 | 11.2 | 76.15 | 64.95 | – | – | –
Cc1ccc(C)c(S(=O)(=O)Nc2cc(Cl)c3oc(=O)sc3c2)c1 | 25.38 | 86.74 | 61.36 | – | – | –
Cc1cccc(C(=O)Oc2ccc3oc(=O)sc3c2)c1 | 44.36 | 92.24 | 47.88 | – | – | –
C=CCN1C(=O)/C(=C\c2ccc(OC)cc2)C(=O)NC1=S | – | – | – | 19.08 | 95.09 | 76
CCN1C(=O)C(=Cc2ccc(O)c(I)c2)C(=O)N(CC)C1=S | – | – | – | 39.32 | 100.4 | 61.04
C=CCN1C(=O)/C(=C\c2ccc(N(CC)CC)cc2)C(=O)NC1=S | – | – | – | 41.82 | 102.2 | 60.35
Cc1sc(-n2c(C)cc(C=C3C(=O)NC(=S)NC3=O)c2C)c(C#N)c1C | – | – | – | 45.2 | 102 | 56.82

SMILES | MCL-1% Bound (MCL-1ΔNΔC [1]; [3]) [%] | BCL-XL % Bound (BCL-XLΔC; [4]) [%] | Spec Values (MCL-1ΔNΔC [2]; [5]) | MCL-1% Bound (MCL-1ΔNΔC [1]) [%] | BCL-XL % Bound (BCL-XLΔC) [%] | Spec Values (MCL-1ΔNΔC [2])
CCOc1cc(C=C2C(=O)N(C)C(=S)N(C)C2=O)ccc1OC(C)C(=O)O (stereo not shown) | – | – | – | 41.99 | 98.2 | 56.22
CCN1C(=O)C(=Cc2cccn2C)C(=O)N(CC)C1=S | – | – | – | 52.01 | 105.7 | 53.66
CSc1ncc(/C=C2/C(=O)NC(=O)N(C3CCCCC3)C2=O)cn1 | – | – | – | 46.42 | 99 | 52.58
O=C1NC(=O)C(=Cc2ccc(Sc3ccc(Cl)cc3)o2)C(=O)N1 | – | – | – | 39.96 | 92.22 | 52.25
O=C1NC(=O)N(CCc2ccc(F)cc2)C(=O)/C1=C\c1ccc(O)c(O)c1 | – | – | – | 30.59 | 81.34 | 50.75
C=CCN1C(=O)/C(=C\c2ccc(N3CCOCC3)cc2C)C(=O)NC1=S | – | – | – | 33.01 | 82.66 | 49.65
Cc1ccccc1C=C1C(=O)N(C)C(=S)N(C)C1=O | – | – | – | 51.19 | 99.22 | 48.03
CCc1ccc(C=C2C(=O)N(C)C(=S)N(C)C2=O)cc1 | – | – | – | 55.45 | 100.9 | 45.4
Cc1ccc(C2=NC(=O)C(Cc3cc(O)c(O)c(Br)c3)S2)cc1 (stereo not shown) | 2.607 | 96.59 | 93.98 | – | – | –
O=C1N=C(Nc2cccc(Cl)c2Cl)S/C1=C/c1ccco1 | 15.57 | 89.44 | 73.87 | – | – | –
CCOC(=O)C1=C(Nc2cccc(Cl)c2)S/C(=C\c2ccco2)C1=O | 48.22 | 111.2 | 63 | – | – | –
O=C(O)C(Cc1ccccc1)N1C(=O)/C(=C/C=C/c2ccco2)SC1=S (stereo not shown) | – | – | – | −9.611 | 87.83 | 97.44
Nc1c(C(=O)NCc2ccco2)c2nc3ccccc3nc2n1CCc1ccccc1F | – | – | – | 6.6 | 99.9 | 93.2
O=c1c(O)c(-c2ccc(O)c(O)c2)oc2cc(O)cc(O)c12 [drawing 15] | 16.69 | 105.3 | – | – | – | –
CC1=C(CC/C(C)=C/CCC2C=CC(C3=CC(=O)OC3O)OC2O)C(C)(C)CCC1 (stereo not shown) [drawing 17] | – | – | – | – | – | 71.82
CCOc1cc(C(Nc2cccnc2)c2ccc3cccnc3c2O)ccc1O (stereo not shown) [drawing 35] | −0.3 | – | – | – | – | –
O=c1oc2c(O)c(O)cc3c(=O)oc4c(O)c(O)cc1c4c23 [drawing 165] | 1.26 | – | 89.32 | – | – | –
CC1=C(CC/C(C)=C/CCC2C=CC(C3=CC(=O)OC3O)OC2O)C(C)(C)CCC1 (stereo not shown) [drawing 207] | – | – | – | – | – | 71.82
